Experimental data reported in ChEMBL document CHEMBL4627383, “Optimization of 2-(1H-imidazo-2-yl)piperazines series of Trypanosoma brucei growth inhibitors as potential treatment for the second stage of HAT” (Bioorg Med Chem Lett, 2020).
pEC50: −log10 of the molar value. Active and inactive are the calls of the source. The rule behind the calls is not given here.

Tests used:
Trypanosoma brucei [1] = assay: Antitrypanosomal activity against Trypanosoma brucei assessed as parasite growth inhibition in presence of 10% FBS; type: functional, organism-based
HUVEC = assay: (§1) Cytotoxicity against HUVEC assessed as reduction in cell viability; type: cell-based; details: human
HeLa = assay: (§2) Cytotoxicity against human HeLa cells assessed as reduction in cell viability; type: cell-based; details: hela
[2] = Protein binding in mouse plasma assessed as unbound fraction; type: ADME, cell-free
[3] = Half life in mouse hepatocytes; type: ADME, cell-based, Hepatocyte
[4] = test system: Trypanosoma brucei rhodesiense; assay: […] activity against Trypanosoma brucei rhodesiense assessed as reduction in parasite viability after 2 hrs by time kill assay; type: functional, organism-based
[5] = Half life in human hepatocytes; type: ADME, cell-based, Hepatocyte
[6] = Cmax in C57BL6 mouse at 30 mg/kg, ip; type: ADME, organism-based; parameters: dose 30 mg/kg, route intraperitoneal; details: in vivo
[7] = Oral bioavailability in C57BL6 mouse at 30 mg/kg; type: ADME, organism-based; details: in vivo
Trypanosoma brucei [8] = assay: Antitrypanosomal activity against Trypanosoma brucei assessed as parasite growth inhibition in presence of 50% mouse serum; type: functional, organism-based
[9] = Permeability in porcine brain endothelial cells/rat astrocytes model system; type: ADME, cell-based; details: read-out: permeability
[10] = as §1; type: cell-based; details: human
[11] = as §2; type: cell-based; details: HeLa cells

SMILES | pEC50 (Trypanosoma brucei [1]) | other results
COc1ccc2nc(C(F)(F)F)n(C(=O)N3CCN(C4CCN(C)CC4)C[C@H]3c3ncc(-c4cc5ccccc5nc4OC)[nH]3)c2c1 | 6.74 | 
COc1ccc2nc(C(F)(F)F)n(C(=O)N3CCN(Cc4cnccn4)C[C@H]3c3ncc(-c4cc5ccccc5nc4OC)[nH]3)c2c1 | 8.22 | 
COc1ccc2[nH]c(C)c(CC(=O)N3CCN(CC4CCOC4)CC3c3ncc(-c4ccc5ccccc5c4)[nH]3)c2c1 (stereo unspecified) |  | Activity (HUVEC): Non-Toxic; Activity (HeLa): Non-Toxic
COc1nc2ccccc2cc1-c1cnc([C@@H]2CN(CC3CCOC3)CCN2C(=O)n2c(C)nc3ccccc32)[nH]1 (stereo partly specified) | 6.79 | 
COc1ccc2nc(C(F)(F)F)n(C(=O)N3CCN(Cc4nccs4)C[C@H]3c3ncc(-c4cc5ccccc5nc4OC)[nH]3)c2c1 | 8.70 | 
COc1ccc2nc(C(F)(F)F)n(CC(=O)N3CCN(CC4CCOC4)CCC3c3ncc(-c4cc5ccccc5nc4OC)[nH]3)c2c1 (stereo unspecified) | 7.29 | 
COc1ccc2nc(C(F)(F)F)n(CC(=O)N3CC[C@H](N(C)C)C[C@H]3c3ncc(-c4cc5ccccc5nc4OC)[nH]3)c2c1 | 7.01 | 
COc1ccc2nc(C(F)(F)F)n(C(=O)N3CCN(CC4CCOC4)C[C@H]3c3ncc(-c4cc5ccccc5nc4OC)[nH]3)c2c1 (stereo partly specified) | 8.05 | 
COc1ccc2nc(C)n(C(=O)N3CCN(CC4CCOC4)C[C@H]3c3ncc(-c4cc5ccccc5nc4OC)[nH]3)c2c1 (stereo partly specified) | 7.49 | 
COc1ccc2nc(C(F)(F)F)n(CC(=O)N3CCS(=O)(=O)CC3c3ncc(-c4cc5ccccc5nc4OC)[nH]3)c2c1 (stereo unspecified) | 6.45 | 
COc1nc2ccccc2cc1-c1cnc([C@@H]2CN(CC3CCOC3)CCN2C(=O)n2c(C(F)(F)F)nc3ccccc32)[nH]1 (stereo partly specified) | 7.70 | fraction unbound [2]: 0.0204; half-life [3]: 0.8 h; Activity [4]: Active; half-life [5]: 2.6 h; Cmax [6]: 6.9 µM; bioavailability [7]: 133%; pEC50 (Trypanosoma brucei [8]): 6.07; Papp [9]: 8.6 ×10⁻⁶ cm/s
COc1ccc2nc(C(F)(F)F)n(CC(=O)N3CC[C@@H](N(C)C)C[C@H]3c3ncc(-c4cc5ccccc5nc4OC)[nH]3)c2c1 | 6.18 | 
COc1ccc2nc(C(F)(F)F)n(CC(=O)N3CCCCC3c3ncc(-c4cc5ccccc5nc4OC)[nH]3)c2c1 (stereo unspecified) | 7.14 | 
COc1nc2ccccc2cc1-c1cnc([C@@H]2CN(CC3CCOC3)CCN2C(=O)n2c(C)nc3cncnc32)[nH]1 (stereo partly specified) | 6.42 | 
COc1ccc2[nH]c(C)c(C(=O)N3CCN(CC4CCOC4)C[C@H]3c3ncc(-c4cc5ccccc5nc4OC)[nH]3)c2c1 (mixture of isomers) | 7.64 | 
COc1ccc2nc(C(F)(F)F)n(CC(=O)N3CC[C@H](NCC4CCOC4)C[C@H]3c3ncc(-c4cc5ccccc5nc4OC)[nH]3)c2c1 (stereo partly specified) | 7.77 | 
COc1ccc2nc(C(F)(F)F)n(CC(=O)N3C[C@H](NC4CCOC4)CC[C@H]3c3ncc(-c4cc5ccccc5nc4OC)[nH]3)c2c1 (stereo partly specified) | 7.96 | 
COc1ccc2nc(C(F)(F)F)n(CC(=O)N3CC[C@H](NC4CCOC4)C[C@H]3c3ncc(-c4cc5ccccc5nc4OC)[nH]3)c2c1 (stereo partly specified) | 8.15 | fraction unbound [2]: 0.047; half-life [3]: 4 h; CC50 [10]: 3680 nM; half-life [5]: 3.1 h; Cmax [6]: 5 µM; bioavailability [7]: 103%; pEC50 (Trypanosoma brucei [8]): 6.63; CC50 [11]: 7490 nM
COc1ccc2nc(C(F)(F)F)n(CC(=O)N3CCOCC3c3ncc(-c4cc5ccccc5nc4OC)[nH]3)c2c1 (stereo unspecified) | 6.54 | 
